Test results from a melting point compilation (Tetko et al.; mined from patent text by program, amines drawn as free bases though some values may be those of a salt).

melting point	SMILES
140 to 143 °C	N#CCC(CC#N)c1cccc(OCc2ccccc2)c1
202 to 203 °C	Cc1c(NC(=O)c2ccc(-c3cc4ccccc4o3)cc2F)ccc2cc(CN3CCCC3)cnc12
> 260 °C	COc1cccc(OC)c1C(=O)Nc1nnc(-c2nc3ccccc3s2)s1
120 to 121 °C	O=C(NCCO)c1cccc(-c2cccc3c2CC(Cc2cccc(C(F)(F)F)c2)O3)c1 (stereo unspecified)
135 to 136 °C	CS(=O)c1nnc(-c2ccc3ncn(-c4ccc(OC(F)F)cc4)c3c2)o1 (stereo unspecified)
283 to 285 °C	O=C1c2ccccc2-c2c1c(-n1ccnc1)nc1ccc(Br)cc21
105 to 106 °C	C#Cc1ccc(C#N)cc1OC
200 to 205 °C	C=Cc1cn(C)c2cc(-c3ccccc3Cl)c3c(c12)C(=O)NC3=O
130 to 135 °C	OC(CCNC1=NCCCN1)c1ccccc1 (stereo unspecified)
92 to 94 °C	CC1CCN(c2scc(C(C)(C)C)c2C#N)C1=O (stereo unspecified)
273 to 275 °C	O=C1C(Cl)=C(Nc2ccc(S(=O)(=O)Nc3ccccn3)cc2)C(=O)c2ccccc21
158 to 160 °C	CCNC(=O)N(O)C(c1ccccc1)c1cc(C(C)(C)C)c(O)c(C(C)(C)C)c1 (stereo unspecified)
225 to 226 °C	Cn1ccc2c(c(=NO)c1=O)C=CCC2
122 to 123 °C	C=Cc1c(N)nc(-c2ccc(C)cc2)nc1C(=O)OC
162 to 164 °C	Cc1cc(OCC(O)CNC(C)(C)C)ccc1-c1nc(C(F)(F)F)c[nH]1 (stereo unspecified)
131 to 133 °C	CCCN(CCC)C(=O)c1cc(C(=O)O)cc(-c2ncco2)c1
158 to 159 °C	COc1ccc(CSc2nc3cnccc3[nH]2)cc1C
97 °C	Cc1cc(C=O)cc(C=O)c1OCCCC(c1ccc(F)cc1)c1ccc(F)cc1
128 to 130 °C	CC(C)(C)OC(=O)NC1CCCOCC=CC2CC2(C(=O)NS(=O)(=O)C2CC2)NC(=O)C2CC(OC(=O)C3CCCCC3)CN2C1=O (stereo unspecified)
204 to 206 °C	CC1(C)COC(=O)N1c1nc(-c2ccc(C#N)c(F)c2)cs1
173 to 178 °C	CC1CC(c2c(S(C)(=O)=O)ccc(C(=O)O)c2Cl)=NO1 (stereo unspecified)
126 to 130 °C	C=CCOc1nc(N(CC=C)CC=C)nc(N2CCc3ccccc3CC2)c1C#N
68 to 69 °C	COCOc1ccc(O)c(CC#N)c1
68 to 69 °C	COC(=O)C(=O)c1ccc(OCCOc2cccc(F)c2)cc1
80 to 82 °C	CCC1(CC)C(=O)N(CCO)CC(C)(C)N1OC(C)(C)C#N

melting point	SMILES
170 °C	Cc1cccc(-c2c[nH]nc2-c2ccnc(-c3ccc(OCC(=O)N4CCOCC4)cc3)c2)n1
173 to 175 °C	COc1cccc(NC(=NC#N)NC(NC(=O)c2ccc(Cl)cc2)C(C)(C)C)c1 (stereo unspecified)
84 to 87 °C	CC(=O)c1cccc2c1Cc1ccccc1-2
453 °C	Nc1ccc(-c2c(-c3ccccc3)c(-c3ccccc3)c(-c3ccc(N)cc3)c(-c3ccccc3)c2-c2ccccc2)cc1
71 to 73 °C	CCOCCNC(=O)c1c(Cl)cccc1[Si](C)(C)C
259 to 262 °C	Fc1ccc(-c2cc3ccccc3[nH]c2=S)cc1
105 °C	CN1C(=O)N(C[C@@H](CCS(=O)(=O)c2ccc(Oc3ccc(F)cc3)cc2)N(O)C=O)C(=O)C1(C)C
189 to 193 °C	O=c1oc(-c2ccc(F)cc2)nc2cccc(F)c12
86 to 91 °C	Cc1oc2c(Br)cc(C3CCN(Cc4ccccc4)CC3)cc2c1C
212 to 214 °C	O=[N+]([O-])c1ccc2c(C3CCN(C[C@H](O)COc4cccc5[nH]ccc45)CC3)c[nH]c2c1
164 to 165 °C	COC(=O)C(C)(C)c1ccc2c(c1)c(=O)[nH]c(=O)n2CCCCBr
118 °C	COC(=O)NNC(=O)CCc1ccccc1
< 20 °C	CCOC(=O)C(C)(C)Oc1ccc(-c2ccc(CNC(=O)c3cc(Cl)ccc3OC)cc2)cc1
> 250 °C	CCn1nc(-c2nc(C(N)=O)c(N)nc2-c2ccccc2)ccc1=O
149 to 150 °C	C[C@H]([C@](O)(Cn1cncn1)c1ccc(F)cc1F)S(=O)(=O)N1CCCC1
60 to 62 °C	c1ccc2c(c1)NCS2
136 to 137 °C	CCCC1=C(c2ccc(F)c(F)c2)C(=NO)CC1
68 to 69 °C	C[C@H](O)CNc1cc(OCc2ccccc2)ccc1C=O
119 °C	Cc1nc(-c2ccc(N3CC(CN4CCN(C(CC(=O)OCc5ccccc5)C(=O)OCc5ccccc5)CC4)OC3=O)cc2)no1 (stereo unspecified)
177 to 178 °C	NC(=O)C1=NN(c2cccc(COc3ccccc3)c2)C(c2ccccc2)N1 (stereo unspecified)
63 to 65 °C	CC(C)=CCCC(C)=CCCC(C)=CC=CC(C)=CC(N)=O
147 to 148 °C	CCCCCC(CC(=O)Nc1cc(CO)ccc1C(C)(C)C)c1ccccc1C(F)(F)F (stereo unspecified)
290 to 291 °C	CCOC(=O)c1c(-c2ccccc2C)c2cc(C)c(Cl)cc2[nH]c1=O
83 to 84 °C	CC(=O)C(C#N)=Cc1ccccc1
185 to 187 °C	CCS(=O)c1cc2c(cc1OC)CCn1c-2cc2c1C(=O)N(C(C)(C)C)CCCC2 (stereo unspecified)

melting point	SMILES
180 to 181 °C	O=C(N(CCCc1c[nH]c2ccccc12)CCOc1cccc2[nH]c(=O)[nH]c12)C(F)(F)F
62 to 63 °C	CCCCCCCCCCCCCCCCCCOc1cc(C(=O)OC)cc(N(CC(=O)OCc2ccccc2)CC(=O)OCc2ccccc2)c1
179 to 180 °C	CC(C)CC(=O)Nc1c(C(=O)c2cccc(C(F)(F)F)c2)[nH]c2cc(Cl)ccc12
64 to 66 °C	CCSc1ccc(Oc2ccc(Cl)c(Cl)c2)nc1C#N
205 to 207 °C	COC(=O)c1cc(Nc2ccc(C)cc2)c(C(=O)OC)cc1Nc1ccc(C)cc1
> 250 °C	COc1cc2cc(CO)c(CO)c(-c3ccnc(-n4nc(O)c5ccccc5c4=O)c3)c2cc1OC
161 °C	CC(Cn1c(=S)[nH]c2ccccc2c1=O)N1CCC(C(=O)c2ccc(F)cc2)CC1 (stereo unspecified)
32 to 36 °C	CCOC(=O)C1=C(C(=O)OCC)SCCS1
176 to 180 °C	CC(=O)N(c1cc(N)c(F)cc1Cl)S(=O)(=O)CCl
139 to 140 °C	Cn1cc2c(C#CCO)cccc2n1
123 to 125 °C	CNC(=O)CC1CN=C(c2cc3cc(Oc4ccc(S(C)(=O)=O)cn4)cc(OC(COC)COC)c3[nH]2)S1 (stereo unspecified)
82 to 85 °C	NCC1(SCc2ccccc2)C2CC3CC(C2)CC1C3 (stereo unspecified)
30 to 40 °C	COC(F)(F)C(F)(F)C1(C(F)(F)C(F)(F)OC)OCCO1
119 to 124 °C	Cc1ccc(Nc2c(C)cc(Cl)cc2Cl)c(CC(=O)N(C)C)c1
55 °C	O=S(=O)(Cl)c1c(Cl)sc(Cl)c1Cl
215 to 216 °C	Cc1nnsc1C(=O)c1[nH]c2cc(Cl)ccc2c1CC(=O)O
64 to 66 °C	CCCCCCCCCCCCCCCCCCOc1cc(SC)cc(C(=O)O)c1
182 to 183 °C	O=C1NC(=O)C(=Cc2ccc(SCCc3ccccc3)cc2)S1
45 to 46 °C	ON=Cc1cccc(Oc2ccccc2)c1
102 °C	NCCc1cccc(N2C(=O)N(c3ccc(C(F)(F)F)cc3Cl)Cc3cnc(Nc4ccccc4)nc32)c1
129 to 130 °C	Cc1sc2c(Br)c3ccccc3c(-c3cc(Br)c(O)c([N+](=O)[O-])c3)c2c1C
202 to 204 °C	Oc1cc(OCc2ccccn2)ccc1/C=C/c1cc(/C=C/c2ccc3cc[nH]c3c2)n[nH]1
158 °C	O=C1Cc2ccccc2N1c1c(Cl)cc(OCc2ccc3ccccc3n2)cc1Cl
82 to 83 °C	CN(C)CCCCCOc1ccc2oc(-c3ccccc3)cc(=O)c2c1
73 to 74 °C	CCOC(=O)C=Cc1ccc(N)cc1C

melting point	SMILES
71 to 75 °C	COc1cc2ccc(COC(C)=O)cc2cc1OC
131 to 133 °C	CC(C)n1nc(-c2sc(NC(=O)c3ccc(CN(C)CCN(C)C)cc3)nc2-c2ccccc2)ccc1=O
110 to 113 °C	CCc1ncnc2ccc(I)cc12
158 to 160 °C	CC(=O)N1CCc2c(sc(C)c2CCCCN2CCC(c3noc4cc(F)ccc34)CC2)C1
207 to 208 °C	Cc1ccc(NC(=O)c2ccccc2CN2C(=O)C3(COc4cc5c(cc43)CCO5)c3ccccc32)c(C)c1 (stereo unspecified)
67 to 71 °C	O=C(CO)NCCCOCCCCOCCCNC(=O)CO
253 to 255 °C	Oc1ccc(-c2nc3cc(O)ccc3o2)c(Cl)c1
47 to 48 °C	COc1ccccc1NC(=O)C(C)(C)CCCOc1cc(C)ccc1C
137 to 140 °C	CC(C)(C)OC(=O)NCCc1ccc(Oc2c(Cl)cnc(C(F)(F)F)c2Cl)cc1
150 to 151 °C	CS(=O)(=O)O[C@@H]1C[C@@H](C(N)=O)N(C(=O)OCc2ccc([N+](=O)[O-])cc2)C1
106 to 108 °C	COC(=O)c1ccccc1Nc1cccc(N2N=CN(C)N2)c1
174 °C	Cc1cc(=O)c(C(=O)O)c(C)n1C1CC(C)(C)NC(C)(C)C1
36 °C	CN(C)C1(C#N)CCCCC1
173 to 175 °C	CCOc1ccc(-c2ccc3c(c2)C=C(C(=O)OC)CCS3(=O)=O)cc1
161 to 163 °C	Cc1c(N(C)C)cc(C(=O)CS(C)(=O)=O)cc1N(C)C
190 to 193 °C	Cc1cc(Nc2ccccc2C(=O)O)n(-c2ccccn2)n1
44 to 45 °C	O=C(Cl)COc1ccc(Cl)cc1Cl
97 °C	CCCN1C(=O)CN(c2ccccc2)C1=O
124 to 126 °C	CCOC(=O)Cc1nn(Cc2ccc(Br)c(Cl)c2)c(=S)c2ccccc12
202 to 203 °C	NC(=O)N1C(=O)C(=C(OCCc2ccccc2)c2cccs2)c2cc(F)c(Cl)cc21
> 250 °C	CC(CF)(CF)n1cc(C(=O)O)c(=O)c2cc(F)c(N3C[C@@H]4NCCO[C@@H]4C3)cc21
153 to 155 °C	CC(=O)OCc1ccc2oc(=O)c(C(=O)Oc3cncc(Cl)c3)cc2c1
96 to 100 °C	CC(=O)N1CCC(Oc2ccc(C(F)(F)F)cc2)(c2ccccc2)CC1

SMILES	melting point
CCCc1c(C(=O)C(C)C)c2ccc(C(N)=O)cc2n1Cc1ccccc1Br	173 to 174 °C
NCCc1c[nH]c2ccc(NC(N)=O)cc12	188 to 190 °C
CSC(C)=NOC(=O)NCSN(P1OCC(C)(C)CO1)C(C)(C)C	167 to 168 °C
